From patent US7439264B2, “Therapeutic compounds” (President and Fellows of Harvard College, priority 2002, dated 2008)
Values joined by “and” are separate entries in the source; they are usually repeats but may differ in a detail not shown here. Equal values may be shown once. “Also recorded” adds a separate entry of the source. Read-outs that look alike come from different tables or passages of the source.

Legend:
[1] = target: T1, dopamine transporter (DAT) (UniProt Q9GJT6); assay: Competition binding with [3H]WIN 35,428 at the dopamine transporter
T1 construct: Dopamine transporter IC50 (nM) [3H]WIN 35,428; other: unit not given
Experimental: (§1) The affinities (IC50) of the compounds for the dopamine and serotonin transporters were determined in competition studies using [3H]2β-carbomethoxy-3β-(4-fluorophenyl)-8-methyl-8-azabicyclo[3.2.1]octane ([^3H]WIN 35,428) to label the dopamine transporter and [^3H]citalopram to label the serotonin transporter. Competition studies were conducted with a fixed concentration of radioligand and a range of concentrations of the test compound. […] The cells were then exhaustively washed to remove non-covalently bound ligand and binding of cocaine (20 nM) and dopamine uptake (Vmax) were compared.

[2] = target: serotonin transporter (SERT) (UniProt A7KAX8); assay: Competition binding with [3H]citalopram at the serotonin transporter
Experimental: as §1

[3] = target: T2, human dopamine transporter (Homo sapiens, UniProt Q01959); assay: [3H]cocaine binding in hDAT HEK-293 cells after pre-incubation with compound and washing; conditions: for Inhibition of cocaine binding after 24 h (%): 24-h pre-incubation, cells extensively washed, [3H]cocaine 20 nM, HEK-293 hDAT; for irreversible binding to the DAT: 24 hour incubation, then washing
T2 construct: expressed in transfected cells; host or cells: HEK-293

[4] = target: T2, human dopamine transporter; assay: [3H]dopamine uptake in hDAT HEK-293 cells after pre-incubation with compound and washing; type: cell-based; set-up: Inhibition of DA uptake after 24 h (%) / Inhibition of DA uptake: concentration or dose not given beside the values; conditions: for Inhibition of DA uptake after 24 h (%): 24-h pre-incubation, cells extensively washed, HEK-293 hDAT; for decrease of [3H]dopamine transport / [3H]Dopamine transport % of control: 24 hour pre-incubation
DAT = DAT (Macaca fascicularis, UniProt Q9GJT6); conditions: quoted for known ligands; cited from earlier work
[5] = Table 5, read-out: Dopamine transporter IC50 (nM) [3H]WIN 35,428
[6] = Table 5, read-out: Serotonin transporter IC50 (nM) [3H]citalopram
[7] = 24 hour pre-incubation, O-1893 (1 uM)
[8] = 24 hours, concentration not stated (n=4)
[9] = unit inferred, read-out: DAT (binding, Table 6)
[10] = unit inferred, read-out: SERT (binding, Table 6)
[11] = 24 hour pre-incubation with O-2153

T2 sequence (Q01959 whole entry): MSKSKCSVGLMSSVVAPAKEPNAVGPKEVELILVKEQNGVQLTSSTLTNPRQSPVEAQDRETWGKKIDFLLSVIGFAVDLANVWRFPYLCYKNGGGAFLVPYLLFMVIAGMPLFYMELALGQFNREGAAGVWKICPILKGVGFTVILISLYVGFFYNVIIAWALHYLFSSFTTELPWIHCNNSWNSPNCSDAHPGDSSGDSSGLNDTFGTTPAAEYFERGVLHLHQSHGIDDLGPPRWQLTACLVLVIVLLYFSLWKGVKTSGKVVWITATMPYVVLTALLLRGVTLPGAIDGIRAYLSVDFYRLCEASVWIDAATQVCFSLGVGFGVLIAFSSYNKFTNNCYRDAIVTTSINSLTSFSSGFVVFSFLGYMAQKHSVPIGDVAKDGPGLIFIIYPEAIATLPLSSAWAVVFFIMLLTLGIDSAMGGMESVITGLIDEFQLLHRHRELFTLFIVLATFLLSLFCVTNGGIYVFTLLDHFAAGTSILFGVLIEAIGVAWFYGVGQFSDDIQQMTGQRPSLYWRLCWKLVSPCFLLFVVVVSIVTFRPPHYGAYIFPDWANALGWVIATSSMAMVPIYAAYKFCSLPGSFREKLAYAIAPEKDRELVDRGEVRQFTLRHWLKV
Chain of DAT (Q9GJT6 whole entry): as the sequence (Q01959 whole entry) above, with V24M, I137V, P194S, S198G, D200N, S201G, S202P counted along it

SMILES: C=CCCC(=O)OCC1C2CCC(CC1c1ccc(Cl)c(Cl)c1)O2 (stereo not drawn) [Compound O-1893, pent-4-enoic acid-(3α-(3,4-dichlorophenyl)-8-oxabicyclo[3.2.1]oct-2β-yl)methyl ester]
- IC50 [1, 5]: 20 nM
- IC50 [2, 6]: 593 nM
- Inhibition of cocaine binding after 24 h (%) [3]: 63%
- [3H]cocaine binding % of control ([3]; 1 hour pre-incubation): 12 % of control and 10 % of control and 7 % of control
- irreversible binding to the DAT [3]: no irreversible binding took place
- decline of specific [3H]cocaine binding sites ([3]; 24 hour pre-incubation, higher concentration (5 uM, different cells)): 62%
- Tot- NS (dpms) [3, 7]: 3,154 dpms and 3,853 dpms and 4,913 dpms and 6,331 dpms
- [3H]cocaine binding % of control [3, 7]: 45 % of control and 43 % of control and 42 % of control and 49 % of control
- reduction of [3H]cocaine binding (CDPM) [3, 8]: more than 50%
- Inhibition of DA uptake after 24 h (%) [4]: 23%
- Inhibition of DA uptake after 24 h (%) ([4]; listed as 3): much reduced; also recorded: no inhibition
- Dopamine transport % of control ([4]; 1 hour pre-incubation): 29 % of control and 43 % of control and 27 % of control
- decrease of [3H]dopamine transport ([4]; 1 uM): 5%
- decrease of [3H]dopamine transport ([4]; higher concentration (5 uM, different cells)): 23% and 22%
- [3H]Dopamine transport % of control ([4]; O-1893 (1 uM)): 91 % of control and 98 % of control and 95 % of control
- [3H]Dopamine transport % of control ([4]; O-1893-2 (5 uM, different cells), 5 µM): 80 % of control and 72 % of control and 81 % of control and 90 % of control and 67 % of control
- reduction of [3H]dopamine transport [4, 8]: reduced to a lesser extent
- transporter affinity for dopamine ([4]; initially, within one hour of preincubation (n=3)): reduced

SMILES: COC(=O)C1C(c2ccc(F)cc2)CC2CCC1N2CCOC(C)=O (stereo not drawn) [Compound O-1103, 2β-Carbomethoxy-3β-(4-fluorophenyl)-8-(2-acetoxyethyl)-8-azabicyclo[3.2.1]octane]
- IC50 ([1]; read-out: DAT (binding, Table 6), unit inferred): 20 nM
- IC50 ([2]; read-out: SERT (binding, Table 6), unit inferred): 200 nM
- Inhibition of Cocaine Binding ([3]; Table 6, incub time 24 h): 0%
- Inhibition of DA uptake ([4]; Table 6, incub time 24 h): 0%

SMILES: CCN1C(=O)C=CC1=O [N-Ethylmaleimide, N-ethylmaleimide, reference compound]
- IC50 ([1]; read-out: Dopamine transporter IC50 (nM) [3H]WIN 35,428, Table 5): > 100000 nM
- IC50 [2, 6]: > 100000 nM
- Inhibition of cocaine binding after 24 h (%) [3]: 35%
- irreversible binding to the DAT [3]: did manifest irreversible binding
- Inhibition of DA uptake after 24 h (%) [4]: 35%

SMILES: C=CCCCOCC1C(c2ccc(F)cc2)CC2CCC1N2C (centres unmarked) [Compound O-2528]
- IC50 [1, 9]: 41 nM

SMILES: C=CCCC(=O)OCC1C(c2ccc(F)cc2)CC2CCC1N2C (centres unmarked) [Compound O-2517]
- IC50 [1, 9]: 60 nM

SMILES: O=C(OCCCN1C(=O)C=CC1=O)C1C(c2ccc(F)cc2)CC2CCC1N2CCN1C(=O)C=CC1=O (centres unmarked) [Compound O-2335]
- IC50 [1, 9]: 300 nM
- IC50 [2, 10]: 10000 nM

SMILES: CCCCC(=O)OCC1C2CCC(CC1c1ccc(Cl)c(Cl)c1)O2 (stereo not drawn) [Compound O-2102, Pentanoic acid-[3α-(3,4-dichlorophenyl)-8-oxabicyclo[3.2.1]oct-2β-yl]methyl ester]
- IC50 [1, 5]: 71 nM
- IC50 [2, 6]: 917 nM
- Inhibition of cocaine binding after 24 h (%) [3]: 0%
- Inhibition of DA uptake after 24 h (%) [4]: 0%

SMILES: C=CCCNC(=O)C1C(c2ccc(F)cc2)CC2CCC1N2C (centres unmarked) [Compound O-2578]
- IC50 [1, 9]: 800 nM

SMILES: COC(=O)C1C(c2ccc(F)cc2)CC2CCC1N2CCN1C(=O)C=CC1=O (stereo not drawn) [Compound O-1233, 2β-Carbomethoxy-3β-(4-fluorophenyl)-8-(2-maleimidoethyl)-8-azabicyclo[3.2.1]octane]
- IC50 [1, 9]: 237 nM
- IC50 [2, 10]: 3000 nM
- Inhibition of Cocaine Binding ([3]; Table 6, incub time 1 h): 50%/1 h

SMILES: C=CCCCOCC1C2CCC(CC1c1ccc(Cl)c(Cl)c1)O2 (stereo not drawn) [Compound O-2153, 3α-(3,4-dichlorophenyl)-2β-pent-4-enyloxymethyl-8-oxabicyclo[3.2.1]octane]
- IC50 [1, 5]: 58 nM
- IC50 [2, 6]: 755 nM
- Inhibition of cocaine binding after 24 h (%) [3]: 80%
- irreversible binding to the DAT [3]: bound irreversibly
- Tot- NS (dpms) (column head not given, as Table 3) [3, 11]: 12,216 and 6,792
- [3H]cocaine binding % of control (column head not given, as Table 3) [3, 11]: 28 and 18
- Inhibition of DA uptake after 24 h (%) [4]: 40%
- [3H]Dopamine transport % of control (column head not given, as Table 3) [4, 11]: 51 and 54

SMILES: COC(=O)C1C(c2ccc(F)cc2)CC2CCC1N2CCOC(=O)CCC1CO1 (stereo not drawn) [Compound O-1899, 2β-Carbomethoxy-3β-(4-fluorophenyl)-8-[2-(3-oxiranylpropionyloxy)ethyl]-8-azabicyclo[3.2.1]octane]
- IC50 [1, 9]: 53 nM
- IC50 [2, 10]: 230 nM
- Inhibition of Cocaine Binding ([3]; Table 6, incub time 24 h): 0%
- Inhibition of Cocaine Binding ([3]; Table 6, incub time 48 h): 40%
- Inhibition of DA uptake ([4]; Table 6, incub time 24 h): 0%
- Inhibition of DA uptake ([4]; Table 6, incub time 48 h): 20%

SMILES: COC(=O)[C@H]1[C@@H](OC(=O)c2ccccc2)C[C@@H]2CC[C@H]1N2C [(−)-Cocaine, cocaine, reference compound]
- IC50 [1, 5]: 95 nM
- IC50 [2, 6]: 270 nM

SMILES: CC(C)CC(=O)OCC1C2CCC(CC1c1ccc(Cl)c(Cl)c1)O2 (stereo not drawn) [Compound O-2059, 3-Methylbutanoic acid-[3α-(3,4-dichlorophenyl)-8-oxabicyclo[3.2.1]oct-2β-yl]methyl ester]
- IC50 [1, 5]: 75 nM
- IC50 [2, 6]: 515 nM
- Inhibition of cocaine binding after 24 h (%) [3]: 60%
- Inhibition of DA uptake after 24 h (%) [4]: 60%

SMILES: O=C(OCCN1C(=O)C=CC1=O)C1C(c2ccc(F)cc2)CC2CCC1N2CCN1C(=O)C=CC1=O (centres unmarked) [Compound O-2315]
- IC50 [1, 9]: 2000 nM
- IC50 [2, 10]: 14000 nM

SMILES: C=CCOC(=O)C1C2CCC(CC1c1ccc(Cl)c(Cl)c1)O2 (centres unmarked) [Compound O-2227]
- IC50 [1, 9]: 3 nM
- IC50 [2, 10]: 32 nM
- Inhibition of Cocaine Binding ([3]; Table 6, incub time 1 h): 0%
- Inhibition of Cocaine Binding ([3]; Table 6, incub time 24 h): 55%
- Inhibition of DA uptake ([4]; Table 6, incub time 1 h): 0%
- Inhibition of DA uptake ([4]; Table 6, incub time 24 h): 40%

SMILES: O=C(OCCCN1C(=O)C=CC1=O)C1C(c2ccc(F)cc2)CC2CCC1N2CCCN1C(=O)C=CC1=O (centres unmarked) [Compound O-2492]
- IC50 [1, 9]: 237 nM
- IC50 [2, 10]: 2000 nM

SMILES: COCC(=O)OCCCN1C2CCC1C(C(=O)OC)C(c1ccc(F)cc1)C2 (stereo not drawn) [Compound O-1071, 2β-Carbomethoxy-3β-(4-fluorophenyl)-8-(3-methoxyacetoxypropyl)-8-azabicyclo[3 2.1]octane]
- IC50 [1, 9]: 125 nM
- IC50 [2, 10]: 3000 nM
- Inhibition of Cocaine Binding ([3]; Table 6, incub time 24 h): 0%
- Inhibition of DA uptake ([4]; Table 6, incub time 24 h): 0%

SMILES: CCN1C(=O)C=CC1=O [Compound O-1765]
- Inhibition of Cocaine Binding ([3]; Table 6, incub time 24 h): 35%
- Inhibition of DA uptake ([4]; Table 6, incub time 24 h): 35%

SMILES: COC(=O)C1C(c2ccc(F)cc2)CC2CCC1N2C (stereo not drawn) [WIN 35,428, 2β-carbomethoxy-3β-(4-fluorophenyl)-8-methyl-8-azabicyclo[3.2.1]octane, reference compound]
- IC50 [1, 5]: 11 nM
- IC50 [2, 6]: 160 nM
- irreversible binding to the DAT [3]: did not bind irreversibly
- IC50 (DAT): 11 nM

SMILES: COC(=O)C1C2CCC(CC1c1ccc(Cl)c(Cl)c1)O2 (stereo not drawn) [2β-carbomethoxy-3α-(3′,4′-dichlorophenyl)-8-oxabicyclo[3.2.1]octane]
- IC50 (DAT): 2.34 nM

SMILES: O=C(CCC1CO1)OCC1C2CCC(CC1c1ccc(Cl)c(Cl)c1)O2 (racemic) [Compound O-1834, 3-Oxiranyl-propionic acid [3α-(3,4-dichlorophenyl)-8-oxabicyclo[3.2.1]oct-3β-yl]methyl ester]
- IC50 [1, 5]: 17 nM
- IC50 [1, 9]: 17 nM
- IC50 [2, 6]: 292 nM
- IC50 [2, 10]: 294 nM
- Inhibition of cocaine binding after 24 h (%) [3]: 18%
- Inhibition of Cocaine Binding ([3]; Table 6, incub time 24 h): 18%
- Inhibition of DA uptake after 24 h (%) [4]: 68%
- Inhibition of DA uptake ([4]; Table 6, incub time 24 h): 68%

SMILES: C=CCCNCC1C(c2ccc(F)cc2)CC2CCC1N2C (centres unmarked) [Compound O-2583]
- IC50 [1, 9]: 500 nM
